Reference: patent publication US9284325B2, “Spectinamides as anti-tuberculosis agents” (UNIVERSITY OF TENNESSEE RESEARCH FOUNDATION, priority 2009, dated 2016)
≈ marks a conversion by molar mass, not a printed value. Where a name gives a salt, the structure may show the parent alone.

Columns and labels:
[1] = test system: Burkholderia cepacia ATCC 25416; experiment: MIC determination by microbroth dilution; format: cell-based; conditions: ATCC25416, read-out: MIC B. cepcia
E. faecalis ATCC 33186 = experiment: MIC determination by microbroth dilution; format: cell-based, Enterococcus faecalis; conditions: Enterococcus faecalis, ATCC33186
P. aeruginosa PAO1 = experiment: MIC determination by microbroth dilution; format: cell-based, Pseudomonas aeruginosa; conditions: Pseudomonas aeruginosa
[2] = test system: S. aureus 8325 or strain ATCC 29213; experiment: MIC determination by microbroth dilution; format: cell-based, Staphylococcus aureus; conditions: Staphylococcus aureus, ATCC29213; S. aureus 8325 or strain ATCC 29213 (for 1471-1544)
M. tuberculosis H37Rv = experiment: MIC determination by microbroth dilution, anti-tuberculosis activity; format: cell-based, Mycobacterium tuberculosis; conditions: Mycobacterium tuberculosis, H37RV, 168 h; read-out: MIC
E. coli K12 = experiment: MIC determination by microbroth dilution; format: cell-based, Escherichia coli; conditions: Escherichia coli, K12
[3] = test system: Acinetobacter baumannii ATCC 19606; experiment: MIC determination by microbroth dilution; format: cell-based; conditions: ATCC19606
[4] = test system: Strenotrophomonas maltophilia ATCC 13637; experiment: MIC determination by microbroth dilution; format: cell-based
[5] = test system: Klebsiella pneumoniae ATCC 33495; experiment: MIC determination by microbroth dilution; format: cell-based; conditions: ATCC33495
E. coli K12 ΔtolC = experiment: microbe, parasite or virus in culture; format: cell-based; conditions: Escherichia coli, read-out: MIC E. coli K12 ΔtolC
[6] = test system: Proteus mirabilis ATCC 25933; experiment: MIC determination by microbroth dilution; format: cell-based; conditions: ATCC25933
[7] = test system: Strep. pyogenes ATCC 700294; experiment: MIC determination by microbroth dilution; format: cell-based, Streptococcus pyogenes; conditions: Streptococcus pyogenes, ATCC700294, read-out: MIC S. pyogenes
B. anthracis Sterne 34F2 = experiment: microbe, parasite or virus in culture; format: cell-based, Bacillus anthracis; conditions: Bacillus anthracis, STERNE34F2, read-out: MIC B. anthracis 34F2
[8] = test system: Strep. pneumoniae DAW27 or strain R6; experiment: MIC determination by microbroth dilution; format: cell-based, Streptococcus pneumoniae; conditions: Streptococcus pneumoniae; Strep. pneumoniae DAW27 or strain R6 (for 1443-1544); read-out: MIC S. pneumoniae
[9] = test system: Proteus vulgaris ATCC 33420; experiment: MIC determination by microbroth dilution; format: cell-based; conditions: ATCC33420

SMILES	MIC [1]	MIC (E. faecalis ATCC 33186)	MIC (P. aeruginosa PAO1)	MIC [2]	MIC (M. tuberculosis H37Rv)	MIC (E. coli K12)	MIC [3]	MIC [4]	MIC [5]	MIC (E. coli K12 ΔtolC)	MIC [6]	MIC [7]	MIC (B. anthracis Sterne 34F2)	MIC [8]	MIC [9]
CN[C@@H]1[C@H](O)[C@H](NC)C2O[C@]3(O)C(OC2[C@H]1O)O[C@H](C)C[C@H]3NC(=O)Cc1csc(Nc2ccc(F)cc2)n1 (stereo partly drawn) [Compound 1538, 3′-Dihydro-3′-deoxy-4(R)-(2-((4-fluorophenyl)amino)thiazol-4-yl)acetylamino spectinomycin tribromide]	> 200 µg/mL	25 µg/mL	200 µg/mL	100 µg/mL	6.25 µg/mL	> 200 µg/mL	> 200 µg/mL	> 200 µg/mL	> 200 µg/mL	25 µg/mL	> 200 µg/mL	6.25 µg/mL	> 200 µg/mL	3.1 µg/mL	> 200 µg/mL
CN[C@@H]1[C@H](O)[C@H](NC)C2O[C@]3(O)C(OC2[C@H]1O)O[C@H](C)C[C@H]3NCC1CC1 (stereo partly drawn) [Compound 1419, 3′-Dihydro-3′-deoxy-4(R)-cyclopropylmethylamino spectinomycin Trihydrochloride]	> 200 µg/mL	200 µg/mL	> 200 µg/mL	100 µg/mL	50 µg/mL	100 µg/mL	> 200 µg/mL	> 200 µg/mL	> 200 µg/mL	25 µg/mL	> 200 µg/mL	50 µg/mL	50 µg/mL	100 µg/mL	> 200 µg/mL
CN[C@@H]1[C@H](O)[C@H](NC)C2O[C@]3(O)C(OC2[C@H]1O)O[C@H](C)C[C@H]3NC(=O)Cc1nccs1 (stereo partly drawn) [Compound 1489, 3′-Dihydro-3′-deoxy-4(R)-(thiazol-2-yl)acetylamino spectinomycin tetradrobromide]	> 200 µg/mL	100 µg/mL (≈ 218 µM)	> 200 µg/mL	100 µg/mL (≈ 218 µM)	6.25 µg/mL (≈ 13.6 µM)	200 µg/mL (≈ 436 µM)	> 200 µg/mL	> 200 µg/mL	> 200 µg/mL	50 µg/mL (≈ 109 µM)	> 200 µg/mL	12.5 µg/mL (≈ 27.3 µM)	> 200 µg/mL	12.5 µg/mL (≈ 27.3 µM)	> 200 µg/mL
CN[C@@H]1[C@H](O)[C@H](NC)C2O[C@]3(O)C(OC2[C@H]1O)O[C@H](C)C[C@H]3NC(=O)[C@H](Cc1ccccc1)NC(=O)CN (stereo partly drawn) [Compound 1502, 3′-Dihydro-3′-deoxy-4(R)-[2(S)-(2-aminoacetamido)-3-phenyl]-propanoylamino spectinomycin Trihydrochloride]	> 200 µg/mL	> 200 µg/mL	> 200 µg/mL	> 200 µg/mL	> 200 µg/mL	> 200 µg/mL	> 200 µg/mL	> 200 µg/mL	> 200 µg/mL	> 200 µg/mL	> 200 µg/mL	> 200 µg/mL	> 200 µg/mL	> 200 µg/mL	> 200 µg/mL
CN[C@@H]1[C@H](O)[C@H](NC)C2O[C@]3(O)C(OC2[C@H]1O)O[C@H](C)C[C@H]3NC(=O)Cc1cccc(OC)c1 (stereo partly drawn) [Compound 1400, 3′-Dihydro-3′-deoxy-4(R)-(3-methoxy-phenyl)acetylamino spectinomycin Dihydrochloride]	> 200 µg/mL	100 µg/mL	100 µg/mL	> 200 µg/mL	12.5 µg/mL	> 200 µg/mL	> 200 µg/mL	> 200 µg/mL	> 200 µg/mL	> 200 µg/mL	> 200 µg/mL	> 200 µg/mL	200 µg/mL	100 µg/mL	> 200 µg/mL
CN[C@@H]1[C@H](O)[C@H](NC)C2O[C@]3(O)C(OC2[C@H]1O)O[C@H](C)C[C@H]3NC(=O)c1cccc2cccnc12 (stereo partly drawn) [Compound 1536, 3′-Dihydro-3′-deoxy-4(R)-(quinoline-8-yl)carbonylamino spec-tinomycin trihydrobromide]	> 200 µg/mL	> 200 µg/mL	> 200 µg/mL	> 200 µg/mL	> 200 µg/mL	> 200 µg/mL	> 200 µg/mL	> 200 µg/mL	> 200 µg/mL	> 200 µg/mL	> 200 µg/mL	> 200 µg/mL	> 200 µg/mL	200 µg/mL	> 200 µg/mL
CN[C@@H]1[C@H](O)[C@H](NC)C2O[C@]3(O)C(OC2[C@H]1O)O[C@H](C)C[C@H]3NC(=O)Cc1ccc(-c2ccc(Cl)cc2)cn1 (stereo partly drawn) [Compound 1535, 3′-Dihydro-3′-deoxy-4(R)-(5-(4-chlorophenyl)pyridin-2-yl)acetylamino spectinomycin trihydrobromide]	> 200 µg/mL	3.1 µg/mL	100 µg/mL	50 µg/mL	3.12 µg/mL	200 µg/mL	> 200 µg/mL	> 200 µg/mL	> 200 µg/mL	< 6.25 µg/mL	> 200 µg/mL	1.6 µg/mL	> 200 µg/mL	0.8 µg/mL	> 200 µg/mL
